The assay has as its system P388 leukemia ip, CD2F1 mice, survival T/C. Briefly: NCI In Vivo Anticancer Drug Screen. Data for tumor model P388 Leukemia (intraperitoneal) in CD2F1 (CDF1) mice. The following applies: endpoint: median survival time, higher = longer survival. An outline of the steps:
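Mice carrying the transplanted tumor received test compound or vehicle. Survival was recorded in each group, and the value is the treated-group measurement divided by that of the vehicle-treated control group.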

The mark [1] stands for this setting: dose: 100.0 mg/kg/injection, schedule: Q04DX003 (ip), vehicle: Klucel (hydroxypropylcellulose) (HPC).
Where [2] appears, read: dose: 200.0 mg/kg/injection, schedule: Q04DX003 (ip), vehicle: Klucel (hydroxypropylcellulose) (HPC).
Where [3] appears, read: dose: 400.0 mg/kg/injection, schedule: Q04DX003 (ip), vehicle: Klucel (hydroxypropylcellulose) (HPC).
Setting [4] is: dose: 60.0 mg/kg/injection, schedule: Q01DX005 (ip), vehicle: saline with Tween-80.
[5] abbreviates: dose: 120.0 mg/kg/injection, schedule: Q01DX005 (ip), vehicle: saline with Tween-80.
[6] abbreviates: dose: 50.0 mg/kg/injection, schedule: Q01DX005 (ip), vehicle: Klucel (hydroxypropylcellulose) (HPC).
[7] abbreviates: dose: 100.0 mg/kg/injection, schedule: Q01DX005 (ip), vehicle: Klucel (hydroxypropylcellulose) (HPC).
The mark [8] stands for this setting: dose: 200.0 mg/kg/injection, schedule: Q01DX005 (ip), vehicle: Klucel (hydroxypropylcellulose) (HPC).
Setting [9] is: dose: 25.0 mg/kg/injection, schedule: Q04DX003 (ip), vehicle: saline.
[10] abbreviates: dose: 50.0 mg/kg/injection, schedule: Q04DX003 (ip), vehicle: saline.
The mark [11] stands for this setting: dose: 6.25 mg/kg/injection, schedule: Q01DX009 (ip), vehicle: saline with Tween-80.
Setting [12] is: dose: 12.5 mg/kg/injection, schedule: Q01DX009 (ip), vehicle: saline with Tween-80.
Setting [13] is: dose: 100.0 mg/kg/injection, schedule: Q01DX005 (ip), vehicle: saline with Tween-80.
Setting [14] is: dose: 50.0 mg/kg/injection, schedule: Q01DX009 (ip), vehicle: saline with Tween-80.

“And” between values parts separate entries of the source, which are not always exact repeats. Identical values can stand only once. Toxic doses and inconclusive results are not listed.

The values below come from PubChem BioAssay AID330 (DTP/NCI, 2004).

With `Cn1c(=O)c2nc(-c3ccccc3)nnc2n(C)c1=O`, the T/C by setting is: under setting [1], 102 % of control; under setting [2], 103 % of control; under setting [3], 115 % of control.
As for `O=C1COC(C(=O)c2ccccc2)C(=O)N1` (centres undefined), the T/C under setting [4] is 98 % of control; the T/C under setting [5] is 95 % of control; the T/C (dose: 240.0 mg/kg/injection, schedule: Q01DX005 (ip), vehicle: saline with Tween-80) is 95 % of control.
With `NC(=O)N=C(N)N`, the T/C was 106 % of control under setting [6]; 98 % of control under setting [7]; 101 % of control and 106 % of control under setting [8].
For `CC(=O)O/N=C/c1ccccn1`, the T/C is, setting by setting: under setting [9], 94 % of control; under setting [10], 89 % of control and 94 % of control; (dose: 100.0 mg/kg/injection, schedule: Q04DX003 (ip), vehicle: saline) 100 % of control; (dose: 200.0 mg/kg/injection, schedule: Q04DX003 (ip), vehicle: saline) 98 % of control and 100 % of control.
Turning to `CN(C)Cc1cc(O)c(CN(C)C)cc1O`, the T/C reads like this: (dose: 3.13 mg/kg/injection, schedule: Q01DX009 (ip), vehicle: saline + Tween-80 + alcohol) 100 % of control; (dose: 6.25 mg/kg/injection, schedule: Q01DX009 (ip), vehicle: saline + Tween-80 + alcohol) 101 % of control and 111 % of control; (dose: 12.5 mg/kg/injection, schedule: Q01DX009 (ip), vehicle: other) 123 % of control; (dose: 12.5 mg/kg/injection, schedule: Q01DX009 (ip), vehicle: saline + Tween-80 + alcohol) 102 % of control and 112 % of control; (dose: 25.0 mg/kg/injection, schedule: Q01DX009 (ip), vehicle: other) 105 % of control; (dose: 25.0 mg/kg/injection, schedule: Q01DX009 (ip), vehicle: saline + Tween-80 + alcohol) 107 % of control and 109 % of control. In addition, the T/C reads like this: (dose: 50.0 mg/kg/injection, schedule: Q01DX009 (ip), vehicle: other) 105 % of control; (dose: 100.0 mg/kg/injection, schedule: Q01DX009 (ip), vehicle: other) 119 % of control.
As for `COc1ccc2cc3c(nc2c1N)C(=O)C(N1CC1)=C(N1CC1)C3=O`, the T/C runs as follows: (dose: 25.0 mg/kg/injection, schedule: Q01DX005 (ip), vehicle: Klucel (hydroxypropylcellulose) (HPC)) 98 % of control; under setting [6], 99 % of control; under setting [7], 100 % of control; under setting [8], 100 % of control.
Take `c1ccc(CC23CCCCC2N3)cc1` (centres undefined): the T/C reads like this: (dose: 12.5 mg/kg/injection, schedule: Q01DX009 (ip), vehicle: saline) 95 % of control; (dose: 12.5 mg/kg/injection, schedule: Q04DX003 (ip), vehicle: saline) 90 % of control; (dose: 25.0 mg/kg/injection, schedule: Q01DX009 (ip), vehicle: saline) 113 % of control; under setting [9], 90 % of control; (dose: 50.0 mg/kg/injection, schedule: Q01DX009 (ip), vehicle: saline) 100 % of control; under setting [10], 100 % of control.
Take `CCCCCC(=O)c1c(O)cc2c(c1O)C(=O)c1c(O)cc(OC)cc1C2=O`: the T/C under setting [11] is 93 % of control and the T/C under setting [12] is 93 % of control.
In the case of `COc1cc([N+](=O)[O-])ccc1C`, the T/C is 104 % of control (dose: 100.0 mg/kg/injection, schedule: Q04DX003 (ip), vehicle: other); 100 % of control (dose: 200.0 mg/kg/injection, schedule: Q04DX003 (ip), vehicle: other); 100 % of control (dose: 400.0 mg/kg/injection, schedule: Q04DX003 (ip), vehicle: other).
On to `O=[N+]([O-])c1cnc(Oc2ccccc2[N+](=O)[O-])nc1`, for which the T/C reads like this: (dose: 6.25 mg/kg/injection, schedule: Q01DX009 (ip), vehicle: Klucel (hydroxypropylcellulose) (HPC)) 107 % of control; (dose: 12.5 mg/kg/injection, schedule: Q01DX009 (ip), vehicle: Klucel (hydroxypropylcellulose) (HPC)) 98 % of control; (dose: 25.0 mg/kg/injection, schedule: Q01DX009 (ip), vehicle: Klucel (hydroxypropylcellulose) (HPC)) 98 % of control; (dose: 100.0 mg/kg/injection, schedule: Q01DX009 (ip), vehicle: Klucel (hydroxypropylcellulose) (HPC)) 86 % of control.
Take `COc1ccc(CC2C(=O)OC(C)C(NC(=O)C(CC(C)C)N(C)C(=O)C3CCCN3C(=O)C(C)O)C(=O)NC(C(C)C)C(O)CC(=O)OC(C(C)C)C(=O)C(C)C(=O)NC(CC(C)C)C(=O)N3CCCC3C(=O)N2C)cc1` (centres undefined): the T/C is 122 % of control (dose: 37.5 micrograms/kg/injection, schedule: Q01DX005 (ip), vehicle: distilled water + alcohol); 160 % of control (dose: 250.0 micrograms/kg/injection, schedule: Q01DX005 (ip), vehicle: distilled water + alcohol); 166 % of control (dose: 500.0 micrograms/kg/injection, schedule: Q01DX005 (ip), vehicle: distilled water + alcohol).
Regarding `COc1ccc2c(c1)n([O-])c1ccccc1[n+]2=O`, the T/C runs as follows: (dose: 25.0 mg/kg/injection, schedule: Q01DX005 (ip), vehicle: saline with Tween-80) 122 % of control; under setting [13], 157 % of control and 172 % of control.
In the case of `COc1ccc(NC(=O)Oc2ccc3c(C)cc(=O)oc3c2)c(OC)c1` (tested in a mixture with another compound), the T/C under setting [4] is 106 % of control and 117 % of control; the T/C under setting [5] was 120 % of control and 121 % of control.
Consider `CCn1c2ccccc2c2ccc(N=Nc3ccc(N(C)C)cc3)cc21`, for which the T/C is 111 % of control and 112 % of control and 113 % of control under setting [14]; 108 % of control and 118 % of control (dose: 100.0 mg/kg/injection, schedule: Q01DX009 (ip), vehicle: saline with Tween-80).
On to `CCCCCCCCCCCCSC1=C(Cl)C(=O)C(OC)=C(OC)C1=O`, for which the T/C (dose: 6.0 mg/kg/injection, schedule: Q01DX Z (ip), vehicle: saline) was 103 % of control; the T/C under setting [11] is 105 % of control; the T/C (dose: 12.0 mg/kg/injection, schedule: Q01DX Z (ip), vehicle: saline) is 100 % of control; the T/C under setting [12] is 108 % of control; the T/C (dose: 25.0 mg/kg/injection, schedule: Q01DX009 (ip), vehicle: saline with Tween-80) is 121 % of control; the T/C (dose: 25.0 mg/kg/injection, schedule: Q01DX Z (ip), vehicle: saline) is 100 % of control. Further, the T/C is 119 % of control under setting [14] and 92 % of control (dose: 50.0 mg/kg/injection, schedule: Q01DX Z (ip), vehicle: saline).
Consider `CCSc1nsc(NC(C)=O)n1`, for which the T/C (dose: 100.0 mg/kg/injection, schedule: Q01DX001 (ip), vehicle: Klucel (hydroxypropylcellulose) (HPC)) is 104 % of control; the T/C (dose: 200.0 mg/kg/injection, schedule: Q01DX001 (ip), vehicle: Klucel (hydroxypropylcellulose) (HPC)) was 96 % of control; the T/C (dose: 400.0 mg/kg/injection, schedule: Q01DX001 (ip), vehicle: Klucel (hydroxypropylcellulose) (HPC)) was 102 % of control.
For `CC(C)Oc1nc(N2CCNCC2)nc2c1CCCC2`, the T/C is 101 % of control (dose: 15.0 mg/kg/injection, schedule: Q01DX005 (ip), vehicle: saline); 104 % of control (dose: 30.0 mg/kg/injection, schedule: Q01DX005 (ip), vehicle: saline); 111 % of control and 90 % of control (dose: 60.0 mg/kg/injection, schedule: Q01DX005 (ip), vehicle: saline).
Turning to `CN1C(=O)C2(OC(N)=C(O)C2=O)c2ccccc21` (centres undefined), the T/C was 99 % of control under setting [6], 96 % of control under setting [7] and 97 % of control under setting [8].
In the case of `O=C1OCCOCCSCCOCCOC(=O)c2cccc1n2`, the T/C runs as follows: under setting [1], 101 % of control; under setting [2], 102 % of control; under setting [3], 100 % of control.
As to `CC(C)CN1CC(=O)N2Cc3ccccc3CN2C(=O)C1`, the T/C reads like this: (dose: 50.0 mg/kg/injection, schedule: Q01DX005 (ip), vehicle: saline with Tween-80) 101 % of control; under setting [13], 106 % of control; (dose: 200.0 mg/kg/injection, schedule: Q01DX005 (ip), vehicle: saline with Tween-80) 103 % of control.
For `NC1=NC(O)C=C1` (centres undefined), the T/C runs as follows: (dose: 12.5 mg/kg/injection, schedule: Q01DX005 (ip), vehicle: saline) 105 % of control; (dose: 25.0 mg/kg/injection, schedule: Q01DX005 (ip), vehicle: saline) 107 % of control.
